Counter-ions that a name gives are not always drawn. Marks after values point to notes of the source that are not given here.
Columns and labels:
[1] = system: ammonia water induced cough in ICR mice; assay: Antitussive test, cough induced by ammonia water in mice; assay type: in vivo, mouse
Description: • Animals: male ICR mice; • Drugs and reagents: dextromethorphan hydrobromide, ammonia water, 0.2% CMC-Na, protein BD-11; • Apparatus: Compressed nebulizer (403T type), balance (XS105DU type).
Experiment grouping: • Solvent control group; • Dextromethorphan 15 mg/kg group; • Protein BD-11, 20 mg/kg group, 50 mg/kg group.
Dextromethorphan and different doses of protein BD-11 (administration volume 10 ml/kg) were given orally in groups, and the solvent control group was given the same volume of distilled water. One hour later, mice were put into a sealed box and atomized 10% ammonia water for 10 seconds, and then observed and recorded the incubation period of cough in mice and the number of coughs in 2 minutes.
Record the time point of oral administration, the time point of atomization experiment, the incubation period of mice cough and the number of coughs within 2 minutes, respectively. The incubation period of cough refers to the number of seconds from the start of the atomization of ammonia to the occurrence of cough. The performance of coughing in mice is based on contraction of their abdominal muscles (breast contraction) and opening their mouths at the same time. Calculate the mean and standard error of each group of data, and use TTEST to compare the model group with other groups, and P<0.05 is considered as a significant difference.
Give dextromethorphan (15 mg/kg) and different doses of protein BD-11 (20 mg/kg, 50 mg/kg) in advance, One hour later, the mice were put into a sealed box and atomized 10% ammonia water for 10 seconds, and then the mice were observed and recorded the incubation period of coughing and the number of coughs within 2 minutes.

[2] = system: yeast-induced fever model in SD rats; assay: Yeast-induced fever model in SD rats; assay type: in vivo, rat; details: aspirin 300 mg/kg oral
Description: • Animals: 230-260 grams of male SD rats;; • Drugs: yeast (OXOID LP0021), aspirin (SIGMA A2093), protein BD-11; • Instruments: electronic balance (SARTORIUS BP121S type), electronic clinical thermometer (CITIZEN CT-513W type).
Experiment grouping: • Normal control group; • Model group: yeast fever model; • Positive control group: Aspirin 300 mg/kg group; • Protein BD-11, 10 mg/kg group, 50 mg/kg group.
(§1) Preparation of experimental animals: After the experimental animals adapt to the experimental environment (temperature 22° C.±2° C., relative humidity 50%±2%) for 1 day. Pre-adaptation to measure rectal temperature at 8:00 and 15:00, rats were fasted and water was taken freely 12 h before experiment, and let the animal to empty its feces before measuring the rectal temperature. Apply petroleum jelly to the electronic thermometer probe before each temperature measurement. Insert the rat rectum 2 cm (can be marked at 2 cm to ensure that the depth of each insertion is consistent), and record the body temperature after the reading is stable.
(§2) Subcutaneous injection of dry yeast to replicate rat fever model: The body temperature of the rats was measured before modeling. Qualified rats with a body temperature of 36.2-37.3° C. were selected and randomly divided into groups with 8 rats in each group. After oral administration of aspirin and different doses of protein BD-11, 20% yeast suspension (10 ml/kg) was injected subcutaneously immediately, and the normal control group was injected intraperitoneally with an equal volume of normal saline. The body temperatures of the rats were monitored after 2 hours for a total of 8 hours.
(§3) According to the body temperature measured at each time point on the day of the experiment, calculate the mean, standard deviation and standard error of the body temperature of each group of rats. The data of each group was compared with TTEST, and P<0.05 was considered as a significant difference.
Immediately after oral administration of aspirin (300 mg/kg), protein BD-11 (10 mg/kg, 50 mg/kg), subcutaneous injection of 20% yeast was performed to establish a model. The animal body temperature was monitored at 2 hours, 4 hours, 6 hours, and 8 hours after modeling.

[3] = system: lipopolysaccharide (LPS) induced fever in SD rats; assay: Lipopolysaccharide (LPS) induced fever model in SD rats; assay type: in vivo, rat; details: aspirin 300 mg/kg oral
Description: • Animals: 230-260 grams of male SD rats; • Drugs: lipopolysaccharide (LPS, SIGMAL-2880), aspirin (SIGMA A2093), protein BD-11; • Instruments: electronic balance (SARTORIUS BP121S type), electronic clinical thermometer (CITIZEN CT-513W type).
Experiment grouping: • Normal control group; • Model group: lipopolysaccharide fever model; • Positive control group: Aspirin 300 mg/kg group; • Protein BD-11, 10 mg/kg group, 50 mg/kg group. Method: the method of intraperitoneal injection of Lipopolysaccharide to replicate rat fever model.
as §1
as §2, with “Intraperitoneal” for “Subcutaneous”, “lipopolysaccharide” for “dry yeast”, “lipopolysaccharide (20 µg/kg, 2” for “20% yeast suspension (10”, “intraperitoneally” for “subcutaneously”
as §3
Immediately after oral administration of aspirin (300 mg/kg), protein BD-11 (10 mg/kg, 50 mg/kg), intraperitoneal injection of 20 µg/kg lipopolysaccharide was performed to establish a model. The animal body temperature was monitored at 2 hours, 4 hours, 6 hours, and 8 hours after modeling.

[4] = system: acetic acid writhing in ICR mice; assay: Acetic acid writhing test in ICR mice; assay type: in vivo, mouse
Description: • Animals: male ICR mice; • Drugs and reagents: aspirin, physiological saline, glacial acetic acid, protein BD-11.
Experiment grouping: • Model group; • Aspirin 300 mg/kg group; • Protein BD-11, 50 mg/kg group, 200 mg/kg group.
One day after the experimental animals adapt to the environment, Aspirin 300 mg/kg, protein BD-11 50 mg/kg, 200 mg/kg were given orally one hour in advance, and the administration volume was 10 ml/kg; Then, 0.6% acetic acid solution was injected intraperitoneally, and the incubation period (seconds) and frequency of writhing in the animal was observed within 15 minutes.
Calculate the mean and standard error of the data in each group. Compared with the model group by TTEST, P<0.05 was considered as statistically different.
One hour after oral administration of aspirin 300 mg/kg and different doses of protein BD-11 (50 mg/kg, 200 mg/kg), 0.6% acetic acid solution was intraperitoneally injected to observe the writhing incubation period and frequency of ICR mice.
0.6% acetic acid solution was injected into the abdominal cavity of mice, which caused deep and large area and long-term painful stimulation, causing the mice to writhe (the abdomen was contracted into an “S” shape, the trunk and hind legs were stretched, the buttocks were raised and creeping). The incubation time to start writhing and times of writhing in mice were used as the pain response indexs to determine whether the test sample had analgesic effect. […] Compared with the model group, P<0.05, which is statistically significant.

[5] = system: PLO-induced epilepsy in ICR mice; assay: Pilocarpine (PLO) induced convulsive epilepsy in mice; assay type: in vivo, mouse; set-up: mortality rate: unit not given here; details: Diazepam 2 mg/kg
Description: • Animals: male ICR mice; • Drugs: Pilocarpine HCl (PLO, pilocarpine, pilocarpine hydrochloride), Diazepam (diazepam tablets), protein BD-11.
Experiment grouping: • Model group: • Diazepam 2 mg/kg group; • Protein BD-11, 50 mg/kg group, 200 mg/kg group.
The drug was administered once in the afternoon the day before modeling, PLO-225 mg/kg (modeling agent) was injected intraperitoneally 1 hour after the test drug was administered intragastrically on the day of modeling. And positive drug can be administered once 20 minutes before modeling. Observe for 30 minutes after PLO injection.
Observation indicators: ①Seizure situation: the time of seizures from Grade II to Grade IV; (2)the time to death.
(§4) Seizure grade: Refer to Racine grading standard: Grade 0: No response; Grade I: manifested as twitching of facial muscles or the corners of the mouth; Grade II: can nod; Grade III: twitching of one limb; Grade IV: rigidity or body twitching; Grade V: generalized epilepsy (generalized tonic seizures).
Count the number of Grade IV seizures and deaths in each group of mice in the experiment; Grade II, III and IV incubation period. […] Chi-square test was used for statistics of the number of cases. The mean value and standard error of the incubation period were calculated, and TTEST was used to compare the model group with other groups. P<0.05 was considered as a significant difference.

[6] = system: PTZ-induced epilepsy in ICR mice; assay: Pentylenetetrazole (PTZ) induced epilepsy in mice; assay type: in vivo, mouse; details: Retigabine 60 mg/kg
Description: • Animals: male ICR mice; • Medicines: Pentylenetetrazol (PTZ), Retigabine, Protein BD-11.
Experiment grouping: • Model group; • Retigabine 60 mg/kg group; • Protein BD-11, 50 mg/kg group, 200 mg/kg group;
The drug was administered once in the afternoon the day before modeling, On the day of modeling, PTZ-65 mg/kg (modeling agent) was injected intraperitoneal 1 hour after the test drug was administered intragastrically, and the positive drug can be administered once half an hour before modeling. Continue to observe for 15 minutes after injection of PTZ.
Observation index: ①Seizure situation: the time of seizures from Grade III to […]; ②Death situation
as §4
Count the cases of seizures and deaths in each group of mice in the experiment; Grade III and IV incubation period. The incubation period of mice that have not attacked to Grade IV is recorded as the maximum of 900 seconds. Chi-square test was used for statistics of the number of cases. Calculate the mean and standard error of the incubation period. Use TTEST to compare the model group with other groups, and P<0.05 is considered as a significant difference.

[7] = 2, 4, 6 and 8 hours after modeling, P<0.05 vs model group
[8] = Aspirin 300 mg/kg, P<0.05 vs model group

COc1ccc2c(c1)[C@]13CCCC[C@@H]1[C@H](C2)N(C)CC3 [Dextromethorphan, dextromethorphan hydrobromide, reference compound]
Incubation period (cough) ([1]; Dextromethorphan 15 mg/kg oral, 10% ammonia water 10 s, X±SEM, n=9): 38.4 ± 4.5 s
Number of coughs ([1]; Dextromethorphan 15 mg/kg oral, within 2 minutes, X±SEM, n=9): 34.0±2.9
Incubation period and number of coughs vs solvent control group ([1]; dextromethorphan 15 mg/kg, P<0.05): significant improvement

CC(=O)Oc1ccccc1C(=O)O [aspirin, reference compound]
Effect on the increase in body temperature of model rats [2, 7]: can effectively inhibit the increase in body temperature
Body temperature 2 hours after modeling ([2]; 2 h after 20% yeast s.c., n=8): 37.0 ±0.1 °C
Body temperature 4 hours after modeling ([2]; 4 h after 20% yeast s.c., n=8): 37.0±0.1 °C
Body temperature 6 hours after modeling ([2]; 6 h after 20% yeast s.c., n=8): 37.0±0.1 °C
Body temperature 8 hours after modeling ([2]; 8 h after 20% yeast s.c., n=8): 37.0±0.1 °C
Effect on the increase in body temperature of model rats [3, 7]: can effectively inhibit the increase in body temperature
Body temperature 2 hours after modeling ([3]; 2 h after LPS 20 µg/kg i.p., n=8): 36.8 ± 0.1 °C
Body temperature 4 hours after modeling ([3]; 4 h after LPS 20 µg/kg i.p., n=8): 36.9### °C
Body temperature 6 hours after modeling ([3]; 6 h after LPS 20 µg/kg i.p., n=8): 36.8## °C
Body temperature 8 hours after modeling ([3]; 8 h after LPS 20 µg/kg i.p., n=8): 36.9±0.1 °C
Effect on incubation period of writhing [4, 8]: significantly delay
Effect on times of writhing [4, 8]: reduce the times of writhing
Writhing incubation period ([4]; aspirin 300 mg/kg oral, 0.6% acetic acid i.p., n=13): 290.3 ± 37.0 s
Frequency of writhing ([4]; aspirin 300 mg/kg oral, within 15 minutes, n=13): 15.2 ± 2.9 times

CN1C(=O)CN=C(c2ccccc2)c2cc(Cl)ccc21 [Diazepam, reference compound]
Cases of deaths ([5]; PLO 225 mg/kg i.p., 10 mice): 0
Grade IV seizure rate ([5]; PLO 225 mg/kg i.p., 10 mice): 0**
mortality rate ([5]; PLO 225 mg/kg i.p., 10 mice): 0
Cases of Grade IV ([5]; PLO 225 mg/kg i.p., 10 mice, 30 min observation): 0**
Grade II seizure incubation period ([5]; PLO model, mean±SEM): 109 ± 8 s
Grade III seizure incubation period ([5]; PLO model, mean±SEM): 182 ± 14 s
Grade IV seizure incubation period ([5]; PLO model, mean±SEM, no Grade IV recorded as maximum 1800 s): 1800 ± 0 s

CCOC(=O)Nc1ccc(NCc2ccc(F)cc2)cc1N [Retigabine, reference compound]
Cases of deaths ([6]; PTZ 65 mg/kg i.p., 10 mice): 0
Grade IV seizure rate ([6]; PTZ 65 mg/kg i.p., 10 mice): 20%**
mortality rate ([6]; PTZ 65 mg/kg i.p., 10 mice): 0
Cases of Grade IV ([6]; PTZ 65 mg/kg i.p., 10 mice, 15 min observation): 2**
Grade III seizure incubation period ([6]; PTZ model, mean±SEM): 83 ± 7 s
Grade IV seizure incubation period ([6]; PTZ model, mean±SEM, no Grade IV recorded as maximum 900 s): 745 ± 103 s

From patent US20230183305A1, “KERATIN BD-11, PREPARATION METHOD THEREFOR AND PHARMACEUTICAL COMPOSITION AND USE THEREOF” (INSTITUTE OF MATERIA MEDICA, CHINESE ACADEMY OF MEDICAL …, priority 2019, published 2023)
